The values that follow come from patent US12433909B2, “Formulations of cyclic macromolecule-based nanoparticles encapsulating small molecules” (Board of Regents of The University of Texas System, priority 2019, dated 2025).

A short description of data set [1]: experimental drug loading in CDN nanoparticles, quantified by absorbance. It counts as physicochemical. To be noted: for drug loading in CDNs 1-3: theoretical loading of 10% (w/w). The protocol: Panobinostat-loaded nanoparticles were formulated by doping a given concentration of the drug with CDN in 2.5 vol % DMSO-aqueous medium. Panobinostat was added at different theoretical loadings, and the amount of panobinostat incorporated into the network after thorough washing was quantified by absorbance.
An aqueous dispersion (2.0 mL) of blank CDN nanoparticles (10 mg/mL) was doped with DMSO (50 uL) solution of panobinostat (40 mg/mL; 10% theoretical loading). The aqueous dispersion was left to agitate for 18 h, and subjected to concentration via ultrafiltration through Amicon Ultra-15 centrifugal filters (3 kDa MWCO, […]) for 4, 20 mins spins at 5000 RCF. Aliquots were frozen and lyophilized for later studies.
Drug loading was quantified by absorbance ([…] for quisinostat, panobinostat and dacinostat; 285 nm for givinostat; 365 nm for camptothecin; 550 nm for Nile Red) on a Tecan plate reader. Lyophilized nanoparticles were dissolved at 5 mg/ml in DMSO. Samples were plated in triplicate ([…], nanoparticles and 10 μL DMSO per well) in a clear, flat bottom 96-well assay plate. A control curve was constructed in technical triplicate by adding 40 μL blank nanoparticles per well and spiking with 10 μL of known drug concentration in DMSO. Experimental drug loading was calculated as mass of drug/mass of nanoparticles (w/w %). 40 μL of bortezomib loaded nanoparticles (5 mg/ml aqueous solution) were extracted with 100 μL of ethylacetate. The ethylacetate layer was collected and dried under nitrogen. The contents were dissolved in 40 μL of DMSO and plated in triplicate. A control curve was constructed in technical triplicate by spiking with 10 μL of known drug concentration in DMSO. Absorbance was measured at 285 nm. Experimental drug loading was calculated as mass of drug/mass of nanoparticles (w/w %).

A further data set concerns GL261 cells. Briefly: in vitro GL261 cell viability assay (CellTiter-Glo). It counts as cell-based, murine. To be noted: 72 hours of incubation, CDN-4 21% drug loaded. The protocol: For IC50 experiments, GL261 cells were seeded at […] into 96 well plates containing Dulbecco's Modified Eagle Medium (DMEM) and 10% Fetal Bovine Serum (FBS). Cells were given 4 hours to adhere prior to drug treatments. Free panobinostat, drug-loaded and blank CDN-4 (21% drug loaded) were dispersed in 2.5% DMSO in cell culture media at 10 mg/mL drug concentration. Equivalent doses were added to the 96 well plates at 16 serial dilutions with concentrations from 0-70 μM and incubated at 37° C. with 5% CO2 for 72 hours. Cell viability was determined with an IC50 value obtained from a CellTiter-Glo Luminescence assay and calculated using GraphPad Prism (San Diego, CA USA). For uptake experiments, GL261 cells were seeded at 90,000 cells/1 mL into 48 well plates containing DMEM and 10% FBS. Panobinostat loaded CDN-4 nanoparticles (250 ug) were incubated with cells for 48 hours, after which cells were thoroughly washed, fixed, and counterstained with DAPI. Images were collected on an upright Nilkon Ti2 microscope.
On the technique in general: Cellular ATP, detected with luciferase, serves as a proxy for viable cell number.

The conditions of data set [2]: background statement; cited from earlier work.
For data set [3] the following is noted: mouse, in vivo. The protocol:
All animal procedures were approved by the Institutional Animal Care and Use Committee at University of Texas Health Science at Houston in accordance with all relevant guidelines. Healthy, female NSG mice were used for in vivo experiments. CDN nanoparticles were administered by direct infusion into the cisternal magna. Briefly, mice were anesthetized with isoflurane (2%) and mounted on a stereotaxic frame (Kopf Instruments, Tujunga, CA, USA). With the head tilted forward, an incision was made across the back of the neck and muscles were gentle retracted to expose the atlanto-occipal membrane. A Hamilton syringe (29 gauge needle, 30° bevel tip) in a 2 uL volume delivered over 1 minute at an injection dept of 1 mm. The needle was left in place for an additional 2 minutes to prevent backflow. All animals received a subcutaneous injection of buprenorphine (1 mg/kg) prior to surgery, and other analgesics to control pain. For MTD studies, panobinostat loaded CDN-4 nanoparticles were administered at increasing concentrations. […] For pharmacokinetic studies, mice received CDN-4 nanoparticles at a dose of 560 ug panobinostat and euthanized at specified time points (1, 4, 8, 24, and 48 hours after nanoparticle administration, n=5 mice per time point). One mouse in the 24 hour time point died during surgery, leaving n=4 for that experimental group. […]

Take `CC(C)C[C@H](NC(=O)[C@H](Cc1ccccc1)NC(=O)c1cnccn1)B(O)O` [bortezomib]: the “drug loading in CDNs 1-3” value in data set [1] is listed as “loaded particularly well”.
With `Nc1ccn([C@@H]2O[C@H](CO)[C@@H](O)[C@@H]2O)c(=O)n1` [cytarabine], the “experimental loading with all the CDNs” value in data set [1] (control hydrophilic drug, data not shown) is “poor experimental loading”.
`O=C(/C=C/c1ccc(CN(CCO)CCc2c[nH]c3ccccc23)cc1)NO` [dacinostat]: the “drug loading in CDNs 1-3” value in data set [1] is listed as “loaded particularly well”.
Still for that read-out and setting: for `CCN(CC)Cc1ccc2cc(COC(=O)Nc3ccc(C(=O)NO)cc3)ccc2c1` [givinostat] the value was “loaded particularly well”.
What is called IC50 is the concentration that inhibits the measured activity by half. Higher therefore signals weaker potency in that assay. In turn, `Cc1[nH]c2ccccc2c1CCNCc1ccc(/C=C/C(=O)NO)cc1` [non-CDN-formulated Pb] displayed an IC50 in the data set on GL261 cells of 230 nM.
As for `Cc1[nH]c2ccccc2c1CCNCc1ccc(/C=C/C(=O)NO)cc1` [panobinostat], the water solubility entry in data set [2] was “poorly water soluble”. The compound further had a half-inhibitory concentration (IC50) in the data set with GL261 cells (Mus musculus, GL261) of 170 nM. In addition, the panobinostat in plasma entry in data set [3] is listed as “undetectable”.
Consider `Cn1cc(CNCC2CCN(c3ncc(C(=O)NO)cn3)CC2)c2ccccc21` [quisinostat], for which the “drug loading in CDNs 1-3” value in data set [1] is “loaded particularly well”.
